The supplement of paper PMC10307832

Assays:
Test in all cases: relative viability (nuclei count vs DMSO), 5 days (fraction); higher = more cells survive
[1] = compound: C1CSC2=C(C(=O)N1)SC3=C2C=C(C=C3)O [kb NB 142-70] + Nc1ncn([C@H]2C[C@H](O)[C@@H](CO)O2)c(=O)n1 [Decitabine] (partner 2 µM)
How it was run: (§1)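 Relative viability divides the nuclei count in treated wells by that in vehicle wells. Lung cancer cell lines were seeded in 1536-well plates, dosed by pin tool the next day, and fixed and stained after 5 days in one step with final 0.05% Triton X-100, 1% formaldehyde and 1 ug/ml Hoechst. Dosing was a single drug or a fixed anchor-drug dose plus five library-drug doses (not always all listed) in √10 steps, and values are medians of duplicate plates imaged at 4×.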

[2] = compound: C1CSC2=C(C(=O)N1)SC3=C2C=C(C=C3)O [kb NB 142-70] + Cc1nc(NC(=O)N2CCC[C@H]2C(N)=O)sc1-c1ccnc(C(C)(C)C(F)(F)F)c1 [Alpelisib] (partner 2 µM)
How it was run: as §1

[3] = compound: NCC(=O)Nc1ccc(-n2nc(C(F)(F)F)cc2-c2ccc3c(ccc4ccccc43)c2)cc1 + O=C(CCCCCCC(=O)Nc1ccccc1)NO [Vorinostat] (partner 1 µM)
How it was run: as §1

[4] = compound: NCC(=O)Nc1ccc(-n2nc(C(F)(F)F)cc2-c2ccc3c(ccc4ccccc43)c2)cc1 + CS(=O)(=O)CCNCc1ccc(-c2ccc3ncnc(Nc4ccc(OCc5cccc(F)c5)c(Cl)c4)c3c2)o1 [Lapatinib] (partner 2 µM)
How it was run: as §1

[5] = compound: C1CSC2=C(C(=O)N1)SC3=C2C=C(C=C3)O [kb NB 142-70] + N=C(N)NC(=N)NCCc1ccccc1 [Phenformin] (partner 250 µM)
How it was run: as §1

NCI-H1793
relative viability ([1]; first compound 0.1 µM): 0.487 | relative viability ([1]; first compound 1 µM): 0.544 | relative viability ([1]; first compound 3.162 µM): 0.3 | relative viability ([2]; first compound 0.1 µM): 0.589 | relative viability ([2]; first compound 1 µM): 0.711 | relative viability ([2]; first compound 3.162 µM): 0.636 | relative viability ([3]; first compound 0.02 µM): 0.758 | relative viability ([3]; first compound 0.06325 µM): 0.874 | relative viability ([3]; first compound 0.2 µM): 0.699 | relative viability ([3]; first compound 0.6325 µM): 0.793 | relative viability ([3]; first compound 2 µM): 0.86 | relative viability ([4]; first compound 0.02 µM): 0.659 | relative viability ([4]; first compound 0.06325 µM): 0.684 | relative viability ([4]; first compound 0.2 µM): 0.743 | relative viability ([4]; first compound 0.6325 µM): 0.886 | relative viability ([4]; first compound 2 µM): 0.84 | relative viability ([5]; first compound 0.1 µM): 0.285 | relative viability ([5]; first compound 1 µM): 0.406 | relative viability ([5]; first compound 3.162 µM): 0.42

NCI-H1915
relative viability ([1]; first compound 0.1 µM): 0.263 | relative viability ([1]; first compound 1 µM): 0.246 | relative viability ([1]; first compound 3.162 µM): 0.23 | relative viability ([2]; first compound 0.1 µM): 1.07 | relative viability ([2]; first compound 1 µM): 1.08 | relative viability ([2]; first compound 3.162 µM): 0.648 | relative viability ([3]; first compound 0.02 µM): 0.525 | relative viability ([3]; first compound 0.06325 µM): 0.555 | relative viability ([3]; first compound 0.2 µM): 0.56 | relative viability ([3]; first compound 0.6325 µM): 0.497 | relative viability ([3]; first compound 2 µM): 0.552 | relative viability ([4]; first compound 0.02 µM): 0.922 | relative viability ([4]; first compound 0.06325 µM): 0.939 | relative viability ([4]; first compound 0.2 µM): 0.942 | relative viability ([4]; first compound 0.6325 µM): 0.95 | relative viability ([4]; first compound 2 µM): 0.996 | relative viability ([5]; first compound 0.1 µM): 0.365 | relative viability ([5]; first compound 1 µM): 0.359 | relative viability ([5]; first compound 3.162 µM): 0.258

NCI-H1944
relative viability ([1]; first compound 0.1 µM): 0.451 | relative viability ([1]; first compound 1 µM): 0.458 | relative viability ([1]; first compound 3.162 µM): 0.473 | relative viability ([2]; first compound 0.1 µM): 0.874 | relative viability ([2]; first compound 1 µM): 0.817 | relative viability ([2]; first compound 3.162 µM): 0.853 | relative viability ([3]; first compound 0.02 µM): 0.546 | relative viability ([3]; first compound 0.06325 µM): 0.695 | relative viability ([3]; first compound 0.2 µM): 0.554 | relative viability ([3]; first compound 0.6325 µM): 0.558 | relative viability ([3]; first compound 2 µM): 0.526 | relative viability ([4]; first compound 0.02 µM): 0.813 | relative viability ([4]; first compound 0.06325 µM): 0.888 | relative viability ([4]; first compound 0.2 µM): 0.752 | relative viability ([4]; first compound 0.6325 µM): 0.801 | relative viability ([4]; first compound 2 µM): 0.876 | relative viability ([5]; first compound 0.1 µM): 0.202 | relative viability ([5]; first compound 1 µM): 0.205 | relative viability ([5]; first compound 3.162 µM): 0.2

NCI-H1975
relative viability ([1]; first compound 0.1 µM): 0.431 | relative viability ([1]; first compound 1 µM): 0.388 | relative viability ([1]; first compound 3.162 µM): 0.295 | relative viability ([2]; first compound 0.1 µM): 0.665 | relative viability ([2]; first compound 1 µM): 0.604 | relative viability ([2]; first compound 3.162 µM): 0.344 | relative viability ([3]; first compound 0.02 µM): 0.728 | relative viability ([3]; first compound 0.06325 µM): 0.729 | relative viability ([3]; first compound 0.2 µM): 0.804 | relative viability ([3]; first compound 0.6325 µM): 0.704 | relative viability ([3]; first compound 2 µM): 0.747 | relative viability ([4]; first compound 0.02 µM): 0.816 | relative viability ([4]; first compound 0.06325 µM): 0.915 | relative viability ([4]; first compound 0.2 µM): 0.854 | relative viability ([4]; first compound 0.6325 µM): 0.91 | relative viability ([4]; first compound 2 µM): 0.969 | relative viability ([5]; first compound 0.1 µM): 0.394 | relative viability ([5]; first compound 1 µM): 0.366 | relative viability ([5]; first compound 3.162 µM): 0.235

NCI-H1993
relative viability ([1]; first compound 0.1 µM): 0.63 | relative viability ([1]; first compound 1 µM): 0.589 | relative viability ([1]; first compound 3.162 µM): 0.514 | relative viability ([2]; first compound 0.1 µM): 0.761 | relative viability ([2]; first compound 1 µM): 0.654 | relative viability ([2]; first compound 3.162 µM): 0.555 | relative viability ([3]; first compound 0.02 µM): 0.798 | relative viability ([3]; first compound 0.06325 µM): 0.952 | relative viability ([3]; first compound 0.2 µM): 0.656 | relative viability ([3]; first compound 0.6325 µM): 0.969 | relative viability ([3]; first compound 2 µM): 0.862 | relative viability ([4]; first compound 0.02 µM): 0.754 | relative viability ([4]; first compound 0.06325 µM): 0.707 | relative viability ([4]; first compound 0.2 µM): 0.859 | relative viability ([4]; first compound 0.6325 µM): 0.909 | relative viability ([4]; first compound 2 µM): 0.901 | relative viability ([5]; first compound 0.1 µM): 0.567 | relative viability ([5]; first compound 1 µM): 0.488 | relative viability ([5]; first compound 3.162 µM): 0.549

NCI-H2009
relative viability ([1]; first compound 0.1 µM): 0.371 | relative viability ([1]; first compound 1 µM): 0.38 | relative viability ([1]; first compound 3.162 µM): 0.375 | relative viability ([2]; first compound 0.1 µM): 1.04 | relative viability ([2]; first compound 1 µM): 1.2 | relative viability ([2]; first compound 3.162 µM): 0.72 | relative viability ([3]; first compound 0.02 µM): 0.698 | relative viability ([3]; first compound 0.06325 µM): 0.741 | relative viability ([3]; first compound 0.2 µM): 0.792 | relative viability ([3]; first compound 0.6325 µM): 0.805 | relative viability ([3]; first compound 2 µM): 0.766 | relative viability ([4]; first compound 0.02 µM): 0.872 | relative viability ([4]; first compound 0.06325 µM): 0.948 | relative viability ([4]; first compound 0.2 µM): 0.868 | relative viability ([4]; first compound 0.6325 µM): 0.935 | relative viability ([4]; first compound 2 µM): 0.958 | relative viability ([5]; first compound 0.1 µM): 0.477 | relative viability ([5]; first compound 1 µM): 0.547 | relative viability ([5]; first compound 3.162 µM): 0.429

NCI-H2023
relative viability ([1]; first compound 0.1 µM): 0.218 | relative viability ([1]; first compound 1 µM): 0.213 | relative viability ([1]; first compound 3.162 µM): 0.149 | relative viability ([2]; first compound 0.1 µM): 0.619 | relative viability ([2]; first compound 1 µM): 0.602 | relative viability ([2]; first compound 3.162 µM): 0.531 | relative viability ([3]; first compound 0.02 µM): 0.619 | relative viability ([3]; first compound 0.06325 µM): 0.854 | relative viability ([3]; first compound 0.2 µM): 0.58 | relative viability ([3]; first compound 0.6325 µM): 0.653 | relative viability ([3]; first compound 2 µM): 0.621 | relative viability ([4]; first compound 0.02 µM): 0.747 | relative viability ([4]; first compound 0.06325 µM): 1.2 | relative viability ([4]; first compound 0.2 µM): 0.476 | relative viability ([4]; first compound 0.6325 µM): 0.838 | relative viability ([4]; first compound 2 µM): 0.74 | relative viability ([5]; first compound 0.1 µM): 0.382 | relative viability ([5]; first compound 1 µM): 0.44 | relative viability ([5]; first compound 3.162 µM): 0.391

NCI-H2085
relative viability ([1]; first compound 0.1 µM): 0.55 | relative viability ([1]; first compound 1 µM): 0.522 | relative viability ([1]; first compound 3.162 µM): 0.448 | relative viability ([2]; first compound 0.1 µM): 0.869 | relative viability ([2]; first compound 1 µM): 0.901 | relative viability ([2]; first compound 3.162 µM): 0.658 | relative viability ([3]; first compound 0.02 µM): 0.703 | relative viability ([3]; first compound 0.06325 µM): 0.824 | relative viability ([3]; first compound 0.2 µM): 0.728 | relative viability ([3]; first compound 0.6325 µM): 0.877 | relative viability ([3]; first compound 2 µM): 0.849 | relative viability ([4]; first compound 0.02 µM): 0.718 | relative viability ([4]; first compound 0.06325 µM): 0.78 | relative viability ([4]; first compound 0.2 µM): 0.742 | relative viability ([4]; first compound 0.6325 µM): 0.813 | relative viability ([4]; first compound 2 µM): 0.818 | relative viability ([5]; first compound 0.1 µM): 0.706 | relative viability ([5]; first compound 1 µM): 0.756 | relative viability ([5]; first compound 3.162 µM): 0.371
